From patent US4285964A, “Salts of (+)-catechine, their preparation and use, and compositions containing these salts” (Continental Pharma, priority 1979, dated 1981)
Counter-ions that a name gives are not always drawn. Like-named read-outs stand apart in the source and are kept apart here.

Key:
[1] = pH of solutions of the salts; format: physicochemical
[2] = solubility of double salts in the presence of 2% of benzyl alcohol; format: physicochemical; conditions: salts formed with L-lysine and an acid
Description: These double salts of (+)-catechin are all hydrosoluble but the solubility varies somewhat as a function of the acid used.
Upon cooling, salts precipitate and 1 to 3% of benzyl alcohol are added, advantageously 2%. The solution is reheated to about 45° C. and allowed to cool again, preferably to below 10° C. The double salt then remains in solution.

[3] = volume of water per 1 g of (+)-catechin; cited from earlier work

With `Oc1cc(O)c2c(c1)O[C@H](c1ccc(O)c(O)c1)[C@@H](O)C2` [Example 6] the “pH of an aqueous concentrated solution” value [1] was 6.5 and the solubility ([2]; water, 2% benzyl alcohol, organic solvent or mixture, read-out: solubility) was greater than 15 mg/mL.

For `Oc1cc(O)c2c(c1)O[C@H](c1ccc(O)c(O)c1)[C@@H](O)C2` [Example 2], the solubility ([2]; listed as salt formed with L-lysine and hydrochloric acid) was “above 15 mg of (+)-catechin per ml”.

With `Oc1cc(O)c2c(c1)O[C@H](c1ccc(O)c(O)c1)[C@@H](O)C2` [salt formed with L-lysine and acetic acid] the solubility [2] was “above 15 mg of (+)-catechin per ml”.

With `Oc1cc(O)c2c(c1)O[C@H](c1ccc(O)c(O)c1)[C@@H](O)C2` [salt formed with L-lysine and citric acid] the solubility [2] was 9.5 mg of (+)-catechin per ml.

In the case of `Oc1cc(O)c2c(c1)O[C@H](c1ccc(O)c(O)c1)[C@@H](O)C2` [(+)-catechin, trans-2-(3,4-dihydroxyphenyl)-3,4-dihydro-2H-1-benzopyran-3,5,7-triol], the “solubility of (+)-catechin in water” value [3] is listed as 1100-1200 ml of water.

With `Oc1cc(O)c2c(c1)O[C@H](c1ccc(O)c(O)c1)[C@@H](O)C2` [salt formed with L-lysine and glucuronic acid] the solubility [2] was “above 15 mg of (+)-catechin per ml”.
